From patent US20200048305A1, “GLUTATHIONE-CHOLESTEROL DERIVATIVES AS BRAIN TARGETING AGENTS” (South Dakota Board of Regents, priority 2018, published 2020) come the findings set out here.

The nature of data set [1]: Brain-targeting of GUNW-3 DiR micelles, in-vivo whole body fluorescence imaging.
Data set [2] relates to NCI-H226 cells (human lung cancer cells). As to the kind of experiment: In-vitro cytotoxicity by the MTT assay, NCI-H226 cells. The data set is classed as cell-based.
Data set [3] can be described thus: Chemical stability of GUNW-3 in methanol-ammonium aqueous solution. Particulars: methanol-ammonium aqueous solution (1:1), pH 10.8, 4° C., checked 7 days. The data set is classed as physicochemical. The method, then:
The stability of GUNW-3 in a methanol-ammonium aqueous solution (1:1) at pH 10.8, the pH GUNW-3 was soluble, was checked continuously for 7 days at 4° C. (FIG. 4). […] However, it started to decompose quickly after 3 days.

Data set [4] deals with CV-1 cells (monkey kidney cells). As to the kind of experiment: In-vitro cytotoxicity by the MTT assay, CV-1 cells. Type of data set: cell-based. As to conditions: Primates.

The structures appear in SMILES notation.

Regarding `CC(C)CCCC(C)C1CCC2C3CC=C4CC(OCCOCCOC(=O)CCSCC(NC(=O)CCC(N)C(=O)O)C(=O)NCC(=O)O)CC[C@@]4(C)C3CC[C@@]12C` (stereo partly drawn) [GUNW-3], in data set [1] (when delivered in micelles), the distribution in liver result is listed as “low distribution in liver”. Besides, the IC50 in data set [2] worked out at 470 µM; in data set [4] it was 650 µM. Moreover, the “stability of GUNW-3” value in data set [3] is listed as “stable in the first 3 days”.

Turning to `CCCCCCCCCCCCCCCCCCN1/C(=C/C=C/C=C/C=C/C2=[N+](CCCCCCCCCCCCCCCCCC)c3ccccc3C2(C)C)C(C)(C)c2ccccc21.[I-]` [free DiR], the “presence in the spinal cord” value in data set [1] (mice, lateral image at 1 h) is listed as “not observed”. Moreover, in data set [1] (mice, tail vein injection, 5 μg DiR, lateral images at 1 h), the “brain distribution (lateral images)” value is recorded as “no significant brain distribution”.
